According to publication PMC12682947, “Identification of New KCNT1‐Epilepsy Drugs by In Silico, Cell, and Drosophila Modeling” (Annals of Neurology, 2025):
Counter-ions that a name gives are not always drawn.

Target: T1, WT KCNT1 channels (Homo sapiens, UniProt Q5JUK3)
T1 construct: YFP-6His; expressed in transfected cells; host or cells: HEK293T
T1 sequence (Q5JUK3 1-1235 isoform Q5JUK3-3): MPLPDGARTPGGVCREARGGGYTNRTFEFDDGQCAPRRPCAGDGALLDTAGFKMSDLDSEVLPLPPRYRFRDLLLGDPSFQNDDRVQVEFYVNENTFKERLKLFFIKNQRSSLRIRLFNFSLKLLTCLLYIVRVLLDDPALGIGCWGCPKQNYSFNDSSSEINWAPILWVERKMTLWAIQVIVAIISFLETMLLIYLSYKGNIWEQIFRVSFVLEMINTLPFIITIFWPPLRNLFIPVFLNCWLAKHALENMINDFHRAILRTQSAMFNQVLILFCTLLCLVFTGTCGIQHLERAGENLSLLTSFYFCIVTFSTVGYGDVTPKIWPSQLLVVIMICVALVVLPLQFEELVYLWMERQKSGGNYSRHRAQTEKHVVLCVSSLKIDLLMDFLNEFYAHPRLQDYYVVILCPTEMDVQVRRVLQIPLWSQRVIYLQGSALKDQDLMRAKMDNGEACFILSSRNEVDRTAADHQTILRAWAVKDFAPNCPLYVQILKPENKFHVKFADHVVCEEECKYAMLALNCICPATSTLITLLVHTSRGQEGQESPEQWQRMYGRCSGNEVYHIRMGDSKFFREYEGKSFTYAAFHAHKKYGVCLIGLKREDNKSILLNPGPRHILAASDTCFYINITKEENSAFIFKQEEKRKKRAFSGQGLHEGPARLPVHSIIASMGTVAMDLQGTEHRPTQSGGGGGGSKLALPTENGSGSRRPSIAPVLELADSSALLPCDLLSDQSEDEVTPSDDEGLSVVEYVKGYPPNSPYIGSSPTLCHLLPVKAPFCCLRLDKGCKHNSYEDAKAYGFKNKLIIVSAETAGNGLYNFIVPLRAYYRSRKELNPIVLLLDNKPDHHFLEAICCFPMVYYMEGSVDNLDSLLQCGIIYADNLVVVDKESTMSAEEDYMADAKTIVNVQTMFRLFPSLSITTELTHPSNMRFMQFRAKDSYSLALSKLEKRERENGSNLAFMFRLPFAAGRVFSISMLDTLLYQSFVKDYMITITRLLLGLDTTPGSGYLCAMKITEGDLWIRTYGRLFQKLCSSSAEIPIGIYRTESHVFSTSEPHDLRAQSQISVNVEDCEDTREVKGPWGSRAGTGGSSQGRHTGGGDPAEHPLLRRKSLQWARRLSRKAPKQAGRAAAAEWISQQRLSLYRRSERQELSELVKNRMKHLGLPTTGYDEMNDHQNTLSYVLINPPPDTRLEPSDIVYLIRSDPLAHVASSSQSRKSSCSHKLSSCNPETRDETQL
Test: Inside-out patch clamp of HEK293T cells expressing WT KCNT1 channels
Assay type: cell-based
Settings: inside-out patches; for IC50: WT, mean ± SEM; for inhibition at 0.05 µM: HEK-293T, 50 nM, read-out: inhibition of WT human KCNT1 channel activity
Procedure: The CHO cells were cultured in Dulbecco's modified Eagle's Medium (ThermoFisher, UK) supplemented with 10% (v/v) fetal bovine serum, 50 U/ml penicillin and 0.05 mg/ml streptomycin, and incubated at 37°C in 5% CO2 atmosphere. For whole cell recording of WT/Y796H KCNT1, CHO cells were transiently co‐transfected with concatemeric WT/Y796H and EYFP, as described previously.[29] For electrophysiological experiments, cells were plated onto borosilicate glass cover slips and used 2 to 4 days later. Human embryonic kidney 293T cells (HEK293T) were cultured in the same manner, but with medium supplemented with 2 mM L‐glutamine, and 1% (v/v) nonessential amino acids. For excised inside‐out recording of homomeric WT or mutant YFP‐tagged KCNT1, HEK293T cells plated on glass cover slips were transfected using Attractene Transfection Reagent (Qiagen, Germany) according to the manufacturer's instructions and used 2 to 3 days later.
Inside‐out patch clamp recordings were made at room temperature (23°C) from transiently transfected HEK293T cells, as described previously.[11] The pipette solution contained, in mM, 140 NaCl, 4 KCl, 2 CaCl2, 2 MgCl2, and 10 HEPES adjusted to pH 7.4 with NaOH. After achieving the inside‐out configuration, the intracellular face of the membrane was constantly perfused with a solution containing, in mM, 35 NaCl, 110 KCl, 0.2 EGTA, and 10 HEPES adjusted to pH 7.3 with KOH. Drug stock solutions of 5 to 20 mM in DMSO were first diluted in ethanol (1:10) and then in electrophysiological solution. KCNT1 currents were recorded using 2 voltage protocols, depending on the number of active channels in the patch before drug application. Macroscopic currents (number of active channels > 15) were recorded in response to 100 ms voltage ramps between −120 and 120 mV applied every 2 seconds from a holding potential of −78 mV. The average current amplitudes between 0 and 40 mV were used for the analyses and constructing the concentration‐response curves. With a lower number of active channels in the patch (3–15), current traces were recorded in response to 15‐second voltage steps to −20, 0, and 20 mV from a holding potential of −78 mV. Currents recorded at each voltage and each drug concentration were averaged over the duration of the trace and normalized to the average amplitudes of the corresponding current traces in drug‐free solution. The normalized data for all 3 voltage steps were then averaged for each drug concentration and used to build the concentration‐response curves (see Supplementary Fig S3). To determine the IC50, data were fitted with the Hill equation, as described previously.[11] Single channel data were analyzed using Ana software developed by Dr Michael Pusch (Istituto di Biofisica, Genova, Italy; http://users.ge.ibf.cnr.it/pusch/programs-mik.htm). In patch clamp data “n” represents number of cells, and all experiments were repeated using cells from a minimum of 2 separate transfections.

Row | Compound | inhibition of KCNT1 activity at 10 μM (in words) | IC50 [µM] | inhibition at 0.05 µM [%]
1 | CC(C)c1c(C(=O)Nc2ccccc2)c(-c2ccccc2)c(-c2ccc(F)cc2)n1CC[C@@H](O)C[C@@H](O)CC(=O)O [atorvastatin] | not fully inhibiting | 1.9 ± 0.6 | –
2 | Cc1c(O)cccc1C(=O)N[C@@H](CSc1ccccc1)[C@H](O)CN1C[C@H]2CCCC[C@H]2C[C@H]1C(=O)NC(C)(C)C [nelfinavir mesylate] | – | 0.0143 ± 0.0026 | > 60
3 | O=C(OCCN1CCN(c2cccc(C(F)(F)F)c2)CC1)c1ccccc1Nc1ccnc2cc(C(F)(F)F)ccc12 [antrafenine] | – | 0.0126 ± 0.0036 | > 60
4 | CNC(=O)c1cc(Oc2ccc(NC(=O)Nc3ccc(Cl)c(C(F)(F)F)c3)c(F)c2)ccn1 [regorafenib] | not fully inhibiting | – | –
